The source of these data is patent US20040258620A1, “(Ethylene)-( propylene)-triaminepentaacetic acid derivatives, process for their production, and their use for the production of pharmaceutical agents” (priority 2001, published 2004).

The data set in a line: 17O NMR on Gd(TRITA-bz-NO2). The settings on record: for In(1/T1r), reduced longitudinal ^17O relaxation rate / In(1/T2r), reduced transverse ^17O relaxation rate / Δwr, reduced ^17O chemical shift: B = 9.4 Tesla; for A/ħ / ER / ΔH^x / ΔS* / τR^298: from ^17O NMR data; for kex^298: water exchange rate from ^17O NMR data. The class given is physicochemical. From the text:
The rate of water exchange, Kes, has been measured on Gd(TRITA-bz-NO2) by ^17O NMR. The numerical experimental data (reduced transverse and longitudinal ^17O relaxation rates, reduced chemical shifts) measured on a Gd(TRITA-bz-NO2) solution are shown in Table 6.

Regarding `O=C([O-])CN1CCN(CC(=O)[O-])CCN(CC(=O)[O-])CC(Cc2ccc([N+](=O)[O-])cc2)CN(CC(=O)[O-])CC1.[Gd+3]` [Gd(TRITA-bz-NO2)], the “water exchange rate Kex^298” value was determined as 1.8e+08 s⁻¹, the A/ħ is recorded as −3.5 ± 0.2 10^6 rad s^−1, the ER came to 5.57 ± 0.406 kcal/mol and the “ΔH^x” value was 6.41 ± 0.19 kcal/mol. Moreover, the “ΔS*” value is listed as “+3.0 ± 1.0 Jmol^−1K^−1”, the “τR^298” value amounted to 223 ± 20 ps and the “kex^298” value is listed as 180 ± 10 10^6 s^−1. For the setting “T 273.05 K”, the “In(1/T1r), reduced longitudinal ^17O relaxation rate” value is reported as 11.42; the “In(1/T2r), reduced transverse ^17O relaxation rate” value was found to be 13.55; the “Δwr, reduced ^17O chemical shift” value was −9.34E+05 Hz. Moreover, under “T 281.75 K”, the “In(1/T1r), reduced longitudinal ^17O relaxation rate” value came to 11.08; the “In(1/T2r), reduced transverse ^17O relaxation rate” value is given as 13.31; the “Δwr, reduced ^17O chemical shift” value is −9.23E+05 Hz. Moreover, for the setting “T 292.45 K”, the “In(1/T1r), reduced longitudinal ^17O relaxation rate” value is reported as 10.60; the “In(1/T2r), reduced transverse ^17O relaxation rate” value was 12.96; the “Δwr, reduced ^17O chemical shift” value was −9.15E+05 Hz. Moreover, where the note is “T 302.25 K”, the “In(1/T1r), reduced longitudinal ^17O relaxation rate” value worked out at 10.44; the “In(1/T2r), reduced transverse ^17O relaxation rate” value came out at 12.54; the “Δwr, reduced ^17O chemical shift” value is given as −8.72E+05 Hz. Under “T 317.25 K”, the “In(1/T1r), reduced longitudinal ^17O relaxation rate” value is recorded as 9.97; the “In(1/T2r), reduced transverse ^17O relaxation rate” value was 12.03; the “Δwr, reduced ^17O chemical shift” value is listed as −8.28E+05 Hz. Also, under “T 330.25 K”, the “In(1/T1r), reduced longitudinal ^17O relaxation rate” value stood at 9.58; the “In(1/T2r), reduced transverse ^17O relaxation rate” value was 11.56; the “Δwr, reduced ^17O chemical shift” value was −7.07E+05 Hz. For the same compound, under “T 349.45 K”, the “In(1/T1r), reduced longitudinal ^17O relaxation rate” value is 9.14; the “In(1/T2r), reduced transverse ^17O relaxation rate” value amounted to 11.06; the “Δwr, reduced ^17O chemical shift” value is −6.13E+05 Hz. The “inner sphere water molecules of the complex” value (according to the ^17O chemical shifts) is on record as 1. The “water exchange rate, times higher than that measured on Gd(DOTA)” value (relative to Gd(DOTA)) is “over 40 times”.

For `O=C([O-])CN1CCN(CC(=O)[O-])CCN(CC(=O)[O-])CCN(CC(=O)[O-])CC1.[Gd+3]` [Gd(DOTA)(H2O)^−, reference compound], the A/ħ was −3.7 10^6 rad s^−1, the ER was found to be 3.85 kcal/mol, the “ΔH^x” value was found to be 11.9 kcal/mol and the “ΔS*” value is recorded as “+10.5 Jmol^−1K^−1”. In addition, the “τR^298” value amounted to 77 ps and the “kex^298” value is 4.1 10^6 s^−1.
